Consider five compounds from US20260041670A1, “DRUGS FOR PREVENTING AND/OR TREATING ALZHEIMER'S DISEASE” (SHENZHEN UNIVERSITY OF ADVANCED TECHNOLOGY, priority 2023, published 2026).

Where two headings read alike, the source gives them in different places. Where only a bound is given, the exact number is not on record here.

For data set [1] the following is noted: cited from earlier work.
Another data set concerns the target T1, TrkB (Homo sapiens, UniProt Q16620).
T1 construct: expressed in transfected cells; host or cells: human SH-SY5Y cells (BR6/Br6) and T48 cells
The data set can be described thus: Pro-survival MTT assay after staurosporine-induced apoptosis in BR6 and T48 cells. The settings on record: STS 100 nM, 24 h, in words, relative to CF3CN. It is filed as cell-based. As for the experimental part:
FIG. 1b illustrates EC50 values of CF3CN and derivatives thereof. BR6 and T48 cells are treated with staurosporine (STS) (100 nM) and TrkB agonists. CF3CN and compounds #1-4 are added in a dose-dependent manner at concentrations of 0, 5, 10, 50, 100, 500, and 1,000 nM. After 24 h, an MTT assay is performed, and EC50 values are calculated using Prism software (n=3; data are represented by mean±standard deviation (SD)).
The pro-survival effects of four derivatives were quantitatively analyzed in human SH-SY5Y cells and T48 cells stably transfected with the TrkB. […] As PLCγ1 bound with a p-Y816 residue on the TrkB receptor and was subsequently tyrosine-phosphorylated by active TrkB, a tyrosine phosphorylation signal was also monitored in this example (FIG. 1c).

In a further data set the target is hERG (Homo sapiens, UniProt Q12809). Put plainly: hERG inhibition. (The hERG channel carries a current that helps repolarise heart muscle cells.)
Data set [2] is described as follows: Stability in microsomes (human). Type of data set: in vitro ADME.
A short description of data set [3]: Stability in plasma (mouse). The settings on record: for half-life: plasma, read-out: Stability-Plasma T1/2. It is filed as in vitro ADME.
Another data set can be described thus: Permeability Caco-2. It is filed as in vitro ADME. The settings on record: human, Caco-2; b-a. For orientation: Caco-2 monolayers are a common model of the intestinal barrier.
Data set [4] is described as follows: Stability in plasma (human). The settings on record: for half-life: plasma, read-out: Stability-Plasma T1/2. Type of data set: in vitro ADME.
A short description of data set [5]: Stability in hepatocytes (mouse). Type of data set: in vitro ADME. The settings on record: for hepatocyte CLint / half-life: hepatocytes; for hepatocyte CLint: read-out: Stability-Hepatocytes CL; for half-life: read-out: Stability-Hepatocytes T1/2.
The next data set can be described thus: Permeability PAMPA-BBB. Type of data set: in vitro ADME. The settings on record: for Papp: PAMPA, read-out: Permeability-PAMPA-BBB Pe. For orientation: The PAMPA barrier holds no transporters, so it reflects passive diffusion.
Data set [6] can be described thus: Plasma protein binding (human). It is filed as in vitro ADME. The settings on record: plasma, read-out: Plasma Protein Binding Fu, plasma.
Data set [7] is described as follows: Stability in hepatocytes (human). Type of data set: in vitro ADME. The settings on record: for hepatocyte CLint / half-life: hepatocytes; for hepatocyte CLint: read-out: Stability-Hepatocytes CL; for half-life: read-out: Stability-Hepatocytes T1/2.
A short description of data set [8]: Plasma protein binding (mouse). Type of data set: in vitro ADME. The settings on record: plasma, read-out: Plasma Protein Binding Fu, plasma.
A short description of another data set: Solubility (pH 7.4; PBS). Type of data set: physicochemical.
The nature of data set [9]: In vivo PK (plasma and brain, LC-MS/MS) in ICR mice. The settings on record: Table 1; dose and route not stated there.
The nature of data set [10]: Stability in microsomes (mouse). It is filed as in vitro ADME.
In the next data set the test system is Caco-2 cells. The data set can be described thus: Permeability Caco-2. It is filed as in vitro ADME.
For data set [11], the system named is plasma proteins. The data set can be described thus: Plasma protein binding (human). It is filed as in vitro ADME.
Data set [12] concerns plasma proteins. The data set can be described thus: Plasma protein binding (mouse). It is filed as in vitro ADME.

hERG, sequence (Q12809 whole entry): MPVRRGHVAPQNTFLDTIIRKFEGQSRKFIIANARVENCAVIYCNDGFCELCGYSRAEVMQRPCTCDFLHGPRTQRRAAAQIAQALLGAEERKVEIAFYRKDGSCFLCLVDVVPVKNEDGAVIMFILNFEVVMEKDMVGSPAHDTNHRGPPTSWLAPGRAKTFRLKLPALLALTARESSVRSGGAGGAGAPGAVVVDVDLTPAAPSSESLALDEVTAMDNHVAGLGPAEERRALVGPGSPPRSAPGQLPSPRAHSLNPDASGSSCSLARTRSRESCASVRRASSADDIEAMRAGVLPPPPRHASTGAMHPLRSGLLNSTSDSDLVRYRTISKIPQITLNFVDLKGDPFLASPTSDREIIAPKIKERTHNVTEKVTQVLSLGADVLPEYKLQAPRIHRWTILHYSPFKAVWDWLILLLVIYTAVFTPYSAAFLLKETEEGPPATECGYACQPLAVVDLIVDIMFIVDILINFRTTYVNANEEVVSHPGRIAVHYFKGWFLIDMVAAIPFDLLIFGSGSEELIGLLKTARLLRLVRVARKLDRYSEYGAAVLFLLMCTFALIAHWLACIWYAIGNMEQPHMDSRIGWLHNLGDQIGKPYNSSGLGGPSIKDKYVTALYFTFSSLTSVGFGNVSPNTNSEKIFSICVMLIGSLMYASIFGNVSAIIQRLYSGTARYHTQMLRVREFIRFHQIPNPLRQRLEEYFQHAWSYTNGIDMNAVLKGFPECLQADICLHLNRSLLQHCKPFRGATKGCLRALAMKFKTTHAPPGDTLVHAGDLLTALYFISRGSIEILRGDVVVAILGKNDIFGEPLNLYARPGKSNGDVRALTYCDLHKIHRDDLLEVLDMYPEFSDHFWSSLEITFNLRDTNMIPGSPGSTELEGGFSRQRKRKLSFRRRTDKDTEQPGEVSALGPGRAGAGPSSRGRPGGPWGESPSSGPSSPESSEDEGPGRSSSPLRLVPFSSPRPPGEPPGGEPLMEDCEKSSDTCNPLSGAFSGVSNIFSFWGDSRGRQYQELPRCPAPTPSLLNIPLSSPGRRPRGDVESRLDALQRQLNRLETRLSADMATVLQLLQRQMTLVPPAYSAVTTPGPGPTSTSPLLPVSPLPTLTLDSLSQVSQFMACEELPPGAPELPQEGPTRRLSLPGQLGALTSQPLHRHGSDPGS
T1 sequence (Q16620 32-822, species assumed): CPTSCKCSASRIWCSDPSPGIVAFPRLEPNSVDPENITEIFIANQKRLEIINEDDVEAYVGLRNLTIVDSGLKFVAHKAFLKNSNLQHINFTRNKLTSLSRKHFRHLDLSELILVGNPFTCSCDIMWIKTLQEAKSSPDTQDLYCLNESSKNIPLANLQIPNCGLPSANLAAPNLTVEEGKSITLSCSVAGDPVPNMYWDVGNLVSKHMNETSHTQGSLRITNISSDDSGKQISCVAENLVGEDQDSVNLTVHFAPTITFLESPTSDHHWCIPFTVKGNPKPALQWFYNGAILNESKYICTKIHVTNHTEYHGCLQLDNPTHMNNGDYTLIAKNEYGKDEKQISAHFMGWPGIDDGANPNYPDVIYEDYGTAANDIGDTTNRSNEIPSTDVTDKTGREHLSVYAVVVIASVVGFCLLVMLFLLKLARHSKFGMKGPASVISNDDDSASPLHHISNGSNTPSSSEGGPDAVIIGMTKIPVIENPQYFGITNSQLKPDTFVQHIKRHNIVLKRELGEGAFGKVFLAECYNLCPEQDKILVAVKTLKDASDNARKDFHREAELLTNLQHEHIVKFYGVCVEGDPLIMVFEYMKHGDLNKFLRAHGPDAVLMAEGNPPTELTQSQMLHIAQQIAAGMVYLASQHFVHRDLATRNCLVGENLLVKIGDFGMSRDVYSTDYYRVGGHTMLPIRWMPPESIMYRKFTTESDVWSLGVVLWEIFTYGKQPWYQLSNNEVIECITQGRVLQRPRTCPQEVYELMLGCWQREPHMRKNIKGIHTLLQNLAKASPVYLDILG

With `O=c1cc(-c2ccccc2)oc2c(O)c(O)ccc12` [7,8-DHF, 7,8-dihydroxyflavone], the oral bioavailability entry in data set [1] (earlier work on 7,8-DHF) was “approximately 4.6%”.
With `NCc1ccc(-c2cc(=O)c3ccc4nc(C(F)(F)F)[nH]c4c3o2)cc1` [#1], the “pro-survival EC50” value on TrkB is reported as “excessively high”.
A word on the IC50: it is the concentration that gives 50% inhibition. The low end stands for greater potency in that assay, the high end for weaker potency in that assay. The term Papp B→A denotes how fast a substance crosses the layer from the basolateral side. In general, solubility refers to the concentration that dissolves in the medium under given conditions. A low value points to a poorly soluble substance. In the case of `CNC(=O)c1ccc(-c2cc(=O)c3ccc4nc(C(F)(F)F)[nH]c4c3o2)cc1` [#3], the IC50 against hERG is > 10 µM. The microsomal CLint in data set [2] (liver microsomes, read-out: Stability-Microsomes CL) turned out to be 1.03 µL/min/mg. In addition, the half-life in [2] (liver microsomes, read-out: Stability-Microsomes T1/2) was 22.5 h; in data set [3], > 8 h; in data set [4], > 8 h; in data set [5] it was > 8 h; in [7] it was > 8 h. In addition, in the data set “Permeability Caco-2”, the basolateral-to-apical permeability (Papp B→A) is 28.7 ×10⁻⁶ cm/s. Also, the hepatocyte CLint in data set [5] and in data set [7] was < 3 µL/min/1e6 cells each time. In addition, the Papp in the data set “Permeability PAMPA-BBB” is 0.815 ×10⁻⁶ cm/s. In addition, the results for the fraction unbound in [6] and in data set [8] were 0.002 and 0.005, respectively. Moreover, the solubility in “Solubility (pH 7.4; PBS)” (aqueous buffer) was > 100 µM.
Take `CN(C)C(=O)c1ccc(-c2cc(=O)c3ccc4nc(C(F)(F)F)[nH]c4c3o2)cc1` [#4]: the half-maximal inhibitory concentration (IC50) on hERG is > 10 µM. Also, the “pro-survival EC50” value on TrkB was “comparable”. For the same compound, the half-life in data set [3], in data set [4], in [5] and in data set [7] was > 8 h each time. For the same compound, the apparent permeability from basolateral to apical (Papp B→A) in the data set “Permeability Caco-2” came to 45.9 ×10⁻⁶ cm/s. Further, the hepatocyte CLint in data set [5] and in data set [7] was < 3 µL/min/1e6 cells each time. In addition, the Papp in the data set “Permeability PAMPA-BBB” amounted to 1.27 ×10⁻⁶ cm/s. Further, the fraction unbound worked out at 0.004 in [6] and 0.009 in data set [8]. Moreover, the solubility in “Solubility (pH 7.4; PBS)” (aqueous buffer) is > 100 µM.
Take `N#Cc1ccc(-c2cc(=O)c3ccc4[nH]c(C(F)(F)F)nc4c3o2)cc1` [CF3CN, reference compound]: the concentration for half-maximal inhibition (IC50) at hERG was > 25 µM. Moreover, the “Stability-Microsomes CL” value in data set [2] was <12.8(human); μL/min/mg; in data set [10] it was <12.8(mouse) μL/min/mg. The “Stability-Microsomes T1/2” value in data set [2] was >180(human); min; in [10] it was >180(mouse) min. In data set [9], this compound had a t1/2 of 2.994 ± 1.538 h. In addition, the “B/P Ratio (Brain/Plasma Ratio)” value in data set [1] (earlier work on CF3CN) was “approximately 1%”. In addition, the “Stability-Plasma T1/2” value was >480 (mouse); min in data set [3] and >480 (human) min in data set [4]. In the data set on Caco-2 cells, the “Caco-2 Efflux Ratio” value is reported as 3.6. In addition, in the data set with Caco-2 cells (b-a), the “Permeability-Caco-2 Papp (b-a)” value is recorded as 42.6 (b-a) 10 cm/s. In addition, the “Stability-Hepatocytes T1/2” value in [5] is >480 (mouse); min; in [7], >480 (human) min. The “Permeability-PAMPA-BBB Pe” value in “Permeability PAMPA-BBB” is on record as 3.09 10 cm/s. Further, the “Plasma Protein Binding Fu, plasma” value was 0.101% (human); with plasma proteins [11] and 3.55% (mouse) with plasma proteins [12]. Moreover, the solubility in the data set “Solubility (pH 7.4; PBS)” is recorded as >200 µM.
